Measurements taken from patent publication US20240208983A1, “1,2,4-TRIAZOLO[4,3-A]PYRIDINE DERIVATIVES AS NEGATIVE ALLOSTERIC MODULATORS OF METABOTROPIC GLUTAMATE RECEPTOR 2” (Vanderbilt University, priority 2021, published 2024).
pIC50: −log10 of the molar value. Read-outs that look alike come from different tables or passages of the source.

Columns and labels:
human mGlu2 = target: T1, human mGlu2 (Homo sapiens, UniProt Q14416); assay: mGlu2 GIRK cell-based thallium flux assay; details: HEK-293 co-expressing human mGlu2 and GIRK; EC80 glutamate
T1 construct: expressed in transfected cells; host or cells: HEK-293
T1 sequence (Q14416 19-872): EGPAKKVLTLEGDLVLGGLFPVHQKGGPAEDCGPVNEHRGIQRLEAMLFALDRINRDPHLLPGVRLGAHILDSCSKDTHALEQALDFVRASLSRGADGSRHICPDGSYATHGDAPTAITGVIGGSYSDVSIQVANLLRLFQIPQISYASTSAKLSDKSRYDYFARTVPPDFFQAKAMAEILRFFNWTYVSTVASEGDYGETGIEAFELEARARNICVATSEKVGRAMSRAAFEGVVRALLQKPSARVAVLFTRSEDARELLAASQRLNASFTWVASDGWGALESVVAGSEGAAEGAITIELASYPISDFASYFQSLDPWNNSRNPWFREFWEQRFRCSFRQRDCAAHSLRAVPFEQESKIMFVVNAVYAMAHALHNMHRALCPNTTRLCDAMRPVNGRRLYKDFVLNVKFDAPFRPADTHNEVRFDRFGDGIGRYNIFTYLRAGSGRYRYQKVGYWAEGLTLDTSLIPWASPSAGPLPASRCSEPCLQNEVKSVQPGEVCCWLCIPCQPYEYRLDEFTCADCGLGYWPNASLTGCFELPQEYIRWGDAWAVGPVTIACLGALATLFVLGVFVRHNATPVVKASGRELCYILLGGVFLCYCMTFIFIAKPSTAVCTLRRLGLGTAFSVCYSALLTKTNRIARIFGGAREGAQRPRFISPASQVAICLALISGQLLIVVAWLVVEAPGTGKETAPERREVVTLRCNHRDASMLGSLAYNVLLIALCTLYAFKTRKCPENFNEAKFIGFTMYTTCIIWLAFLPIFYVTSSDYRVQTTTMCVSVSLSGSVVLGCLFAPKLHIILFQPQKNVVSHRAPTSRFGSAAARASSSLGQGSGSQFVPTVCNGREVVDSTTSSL
Method: (§1) Human embryonic kidney (HEK-293) cell lines stably co-expressing human mGlu2 and G protein-coupled inwardly rectifying potassium (GIRK) channels, or human mGlu3 and GIRK, were used for in vitro evaluation of compound activity through thallium flux assays.
(§2) The day before the assay, cells from cell lines co-expressing human mGlu2 or mGlu3 and GIRK, as described above, were plated in black-walled, clear-bottomed, amine-coated 384-well plates in 20 μL of assay medium (DMEM containing 10% FBS, 1 M HEPES, 100 mM sodium pyruvate) at a density of 15,000 cells/well and stored at 37° C. in the presence of 5% CO2. On the day of the assay, medium was removed and replaced with assay buffer (Hanks balanced salt solution, 20 mM HEPES, 4.16 mM sodium bicarbonate, pH 7.2) containing 0.328 μM FluoZin-2 AM dye. The dye was initially made up as a 2.85 mM stock in DMSO and diluted 1:1 with 10% pluronic acid before adding to the buffer. Cells were then incubated for one hour at room temperature. After dye-loading, excess extracellular dye was removed by exchanging the dye solution with assay buffer resulting in 20 μL of buffer in each well. After a ten-minute rest period, cell plates were loaded into a Hamamatsu μCell kinetic imaging plate reader to monitor fluorescence using 470 nm excitation and 540 nm emission settings.
(§3) After collection of baseline fluorescence, 20 μL of compound solution prepared as a concentration response series in assay buffer was added. The concentration series was created from a 10 mM DMSO compound stock by performing a 1:3 serial dilution in DMSO followed by a 1:167 dilution of each DMSO solution in buffer. […] Multiple reference wells containing no compound received either no glutamate (for a baseline reference), EC80 glutamate, or ECmax glutamate (for normalization to maximum response). Signal was monitored an additional 2.5 minutes after the glutamate addition. Fluorescence was measured throughout the experiment at a frequency of 1 measurement per every 2 seconds before the glutamate addition and a frequency of 1 measurement per every 1 second after the glutamate addition. Each compound concentration series occurred one time in each plate, and replicates from two or three plates were used in each experimental run. Thallium solutions were handled and disposed of according to guidelines from the Vanderbilt University Chemical Safety department.
(§4) Data were normalized using a static ratio function (F/F0) by dividing every fluorescent measurement by the initial fluorescent value for the corresponding well. The increase in signal resulting from the glutamate/thallium addition of the second add was measured by determining the slope from 3 seconds to 13 seconds after the addition. The average of all baseline slopes (no compound, no glutamate) was determined and this value was subtracted from all other slope values. The average of all ECmax slopes was determined and this value was used to normalize the baseline-corrected slopes to a percent max value (% Emax). The % Emax values for each compound series were plotted versus the log of the concentration and fit to a 4-parameter logistical equation with no fixed parameters.
(§5) Potency is reported as the IC50 resulting from the curve fit.

human mGlu3 = target: T2, human mGlu3 (Homo sapiens, UniProt Q14832); assay: mGlu3 GIRK cell-based thallium flux assay; details: HEK-293 co-expressing human mGlu3 and GIRK; EC80 glutamate
T2 construct: expressed in transfected cells; host or cells: HEK-293
T2 sequence (Q14832 23-879): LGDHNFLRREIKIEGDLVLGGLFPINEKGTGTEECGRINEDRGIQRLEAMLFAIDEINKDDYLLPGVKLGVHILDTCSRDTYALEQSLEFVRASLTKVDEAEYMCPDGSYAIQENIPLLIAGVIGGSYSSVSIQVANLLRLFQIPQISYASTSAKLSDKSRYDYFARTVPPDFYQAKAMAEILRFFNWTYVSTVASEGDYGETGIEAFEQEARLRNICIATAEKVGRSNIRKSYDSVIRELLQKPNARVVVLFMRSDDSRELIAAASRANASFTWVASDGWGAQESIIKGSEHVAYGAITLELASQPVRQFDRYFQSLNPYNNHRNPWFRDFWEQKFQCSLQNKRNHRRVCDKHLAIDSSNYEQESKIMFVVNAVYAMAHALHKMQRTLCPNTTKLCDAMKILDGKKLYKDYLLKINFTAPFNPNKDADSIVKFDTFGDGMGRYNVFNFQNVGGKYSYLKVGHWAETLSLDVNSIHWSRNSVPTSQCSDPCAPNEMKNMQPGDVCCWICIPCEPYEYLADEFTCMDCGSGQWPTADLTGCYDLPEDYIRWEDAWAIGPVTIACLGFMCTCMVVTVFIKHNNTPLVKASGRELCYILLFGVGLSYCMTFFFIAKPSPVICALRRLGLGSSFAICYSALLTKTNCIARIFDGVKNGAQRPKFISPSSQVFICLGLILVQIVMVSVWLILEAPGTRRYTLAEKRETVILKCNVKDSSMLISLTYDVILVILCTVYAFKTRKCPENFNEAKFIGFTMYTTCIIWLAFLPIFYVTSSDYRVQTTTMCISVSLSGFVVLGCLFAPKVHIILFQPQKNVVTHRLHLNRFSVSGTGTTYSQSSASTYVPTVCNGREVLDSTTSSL
Method: as §1, §2, §3, §4, §5

[1] = in vivo; cited from earlier work
group II mGlu receptors = details: cited from earlier work
normal animals [2] = details: cited from earlier work
normal animals [3] = details: cited from earlier work; remark: listed apart in the source
[4] = treatment for 7 days; cited from earlier work
[5] = test system: olfactory bulbectomized rats; details: repeated administration for 14 days; cited from earlier work
[6] = test system: social isolation-reared mice; details: cited from earlier work
mice = details: treated mice; cited from earlier work
Helpless (H) mice = details: cited from earlier work; for activity in the tail suspension test: Helpless (H) mice
[7] = test system: central mGlu2 and mGlu3 receptors; details: in vivo; cited from earlier work
C57Bl6/J mice = details: cited from earlier work
[8] = test system: Aβ-induced neurodegeneration; details: cited from earlier work

## COc1ccc(-c2cn3c(=O)[nH]nc3cc2OCc2cc(C)n(C)n2)c(F)c1 [Compound 10, 7-((1,5-dimethyl-1H-pyrazol-3-yl)methoxy)-6-(2-fluoro-4-methoxyphenyl)-[1,2,4]triazolo[4,3-a]pyridin-3(2H)-one]
Human mGlu2
  pIC50: 6.92
Human mGlu3
  Human mGlu3 GIRK IC50: Inactive

## Cc1csc(COc2cc3n[nH]c(=O)n3cc2-c2ccc(F)cc2)n1 [Compound 6, 6-(4-fluorophenyl)-7-((4-methylthiazol-2-yl)methoxy)-[1,2,4]triazolo[4,3-a]pyridin-3(2H)-one]
Human mGlu2
  pIC50: 6.77
Human mGlu3
  Human mGlu3 GIRK IC50: Inactive

## CN1C(=O)CN=C(c2ccccc2)c2cc(Cl)ccc21 [diazepam]
[1]
  freezing behavior: significantly decreased

## CCCCCCCOC(=O)[C@@]1(F)[C@@H]2C[C@@H](OCc3ccc(Cl)c(Cl)c3)[C@@](N)(C(=O)O)[C@@H]21 [BCI-838]
Group II mGlu receptors; once-daily oral dosing
  duration of inhibition of group II mGlu receptors by brain concentration of active metabolite BCI-632: 22 h
Group II mGlu receptors; three months of treatment
  Dutch APP transgene-associated learning and memory impairment: reversed
  anxiolytic effects: provided anxiolytic effects
Group II mGlu receptors; three months of treatment, two AD mouse models
  levels of monomeric and oAβ peptides in the hippocampus and cortex: decreased
Group II mGlu receptors; wild-type and Alzheimer's diseased mice, 3 months
  hippocampal progenitor cell proliferation: stimulated

## N[C@]1(C(=O)O)[C@H]2[C@@H](C[C@H]1OCc1ccc(Cl)c(Cl)c1)[C@]2(F)C(=O)O [MGS0039]
Normal animals [2]
  Antidepressant-like effects in rat FST: Antidepressant-like effects
Normal animals [3]
  Antidepressant-like effects in mouse TST: Antidepressant-like effects
[4]
  number of escape failures: significantly reduced
[5]
  hyperactivity in the open field test: attenuated the hyperactivity
  learning deficit in the passive avoidance test: attenuated the learning deficit
[6]
  immobility in the FST: reversed the increased immobility
mice
  marble-burying behavior: reduced marble-burying behavior in a significant and dose dependent manner
  spontaneous locomotor activity: no significant change
[1]
  freezing behavior: significantly decreased

## CNCCC(Oc1ccc(C(F)(F)F)cc1)c1ccccc1 (centres unmarked) [fluoxetine]
Helpless (H) mice; chronic (21 days) treatment
  antidepressant effect in helpless mice: full antidepressant effect

## COc1ccc(-c2cn3c(=O)[nH]nc3cc2OCc2nccn2C)c(F)c1 [Compound 9, 6-(2-fluoro-4-methoxyphenyl)-7-((1-methyl-1H-imidazol-2-yl)methoxy)-[1,2,4]triazolo[4,3-a]pyridin-3(2H)-one]
Human mGlu2
  pIC50: 6.67
Human mGlu3
  Human mGlu3 GIRK IC50: Inactive

## Cn1ccc(COc2cc3n[nH]c(=O)n3cc2-c2ccc(F)cc2)n1 [Compound 1, 6-(4-fluorophenyl)-7-((1-methyl-1H-pyrazol-3-yl)methoxy)-[1,2,4]triazolo[4,3-a]pyridin-3(2H)-one]
Human mGlu2
  pIC50: 6.11
Human mGlu3
  Human mGlu3 GIRK IC50: Inactive

## COc1ccc(-c2cn3c(=O)[nH]nc3cc2OCc2ccn(C)n2)cc1 [Compound 11, 6-(4-methoxyphenyl)-7-((1-methyl-1H-pyrazol-3-yl)methoxy)-[1,2,4]triazolo[4,3-a]pyridin-3(2H)-one]
Human mGlu2
  pIC50: 7.07
Human mGlu3
  Human mGlu3 GIRK IC50: Inactive

## COc1ccc(-c2cn3c(=O)[nH]nc3cc2OCc2ccn(C)n2)c(F)c1 [Compound 7, 6-(2-fluoro-4-methoxyphenyl)-7-((1-methyl-1H-pyrazol-3-yl)methoxy)-[1,2,4]triazolo[4,3-a]pyridin-3(2H)-one]
Human mGlu2
  pIC50: 7.05
Human mGlu3
  Human mGlu3 GIRK IC50: Inactive

## Cc1cc(-c2cccc(C3=Nc4cc(C)c(C(F)(F)F)cc4NC(=O)C3)c2)cc(C)n1 [RO4491533]
[7]
  hypolocomotor effect of mGlu2/3 agonist (LY379268): reversed the hypolocomotor effect
C57Bl6/J mice
  immobility time in the FST: dose-dependently reduced
Helpless (H) mice
  activity in the tail suspension test: active

## CCS(=O)(=O)N(Cc1cccnc1)c1cccc(-c2ccc(C#N)cc2)c1 [LY566332]
[8]
  Aβ-induced neurodegeneration: amplified

## N[C@](CC1c2ccccc2Oc2ccccc21)(C(=O)O)[C@H]1C[C@@H]1C(=O)O [LY341495]
Normal animals [2]
  Antidepressant-like effects in rat FST: Antidepressant-like effects
Normal animals [3]
  Antidepressant-like effects in mouse TST: Antidepressant-like effects
[7]
  hypolocomotor effect of mGlu2/3 agonist (LY379268): achieved the same result
C57Bl6/J mice
  immobility time in the FST: dose-dependently reduced
Helpless (H) mice
  activity in the tail suspension test: active
Helpless (H) mice; acute administration
  antidepressant effect in helpless mice: potent antidepressant effect
mice
  marble-burying behavior: significantly reduce marble-burying behavior
[8]
  amplification of Aβ-induced neurodegeneration by LY566332: prevented

## COc1ccc(-c2cn3c(=O)[nH]nc3cc2OCc2csc(C)n2)c(F)c1 [Compound 8, 6-(2-fluoro-4-methoxyphenyl)-7-((2-methylthiazol-4-yl)methoxy)-[1,2,4]triazolo[4,3-a]pyridin-3(2H)-one]
Human mGlu2
  pIC50: 7.27
Human mGlu3
  Human mGlu3 GIRK IC50: Inactive

## Cc1nc(COc2cc3n[nH]c(=O)n3cc2-c2ccc(F)cc2)cs1 [Compound 3, 6-(4-fluorophenyl)-7-((2-methylthiazol-4-yl)methoxy)-[1,2,4]triazolo[4,3-a]pyridin-3(2H)-one]
Human mGlu2
  pIC50: 6.98
Human mGlu3
  Human mGlu3 GIRK IC50: Inactive
